Biological target: T1, Interleukin-1 receptor-associated kinase 4 (Homo sapiens, UniProt Q9NWZ3)
T1 sequence (Q9NWZ3 whole entry): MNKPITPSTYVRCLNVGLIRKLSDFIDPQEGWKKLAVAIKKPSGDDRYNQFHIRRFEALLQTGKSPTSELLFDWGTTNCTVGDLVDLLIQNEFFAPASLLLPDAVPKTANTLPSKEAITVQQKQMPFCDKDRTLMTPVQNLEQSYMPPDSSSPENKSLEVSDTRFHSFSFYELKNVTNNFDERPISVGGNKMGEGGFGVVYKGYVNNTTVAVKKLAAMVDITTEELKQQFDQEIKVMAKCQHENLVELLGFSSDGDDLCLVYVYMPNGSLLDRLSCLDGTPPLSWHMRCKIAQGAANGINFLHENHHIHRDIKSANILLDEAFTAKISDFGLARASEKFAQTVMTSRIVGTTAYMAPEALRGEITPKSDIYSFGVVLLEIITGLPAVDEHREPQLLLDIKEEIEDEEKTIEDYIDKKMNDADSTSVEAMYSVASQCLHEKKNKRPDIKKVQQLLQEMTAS
Experiment: 1RAK4 Kinase Activity Assay
Method: Then 2.5 nM 1RAK4 kinase (Carna), 1 μM biotinylated polypeptide substrate (Cisbio) and 7 μM adenosine triphosphate (Sigma-Aldrich) were sequentially added, and the mixtures were incubated at 37° C. for 120 min. Subsequently, an anti-phosphoserine/threonine antibody (Cisbio) conjugated with a europium element compound and conjugated modified XL665 streptavidin (Cisbio) were added to the reaction systems to stop the reactions. After 1 h of incubation at room temperature, the fluorescence intensity of each well was measured at the excitation wavelength of 337 nm and the emission wavelengths of 620 nm and 665 nm with a microplate reader EnVision (PerkinElmer) in the HTRF mode, and Ratio values were calculated using the formula Ratio=(665 nm/620 nm)×[…]. The inhibition rate of the compound at each concentration was calculated by comparing the fluorescence intensity ratio with that of the control group.

SMILES	IC50
CN(CCC1CCN(C(=O)c2ccc(Cl)c(N3CCC(=O)NC3=O)c2)CC1)C[C@H]1CC[C@H](n2cc(NC(=O)c3cnn4ccc(N5C[C@H]6C[C@@H]5CO6)nc34)c(C(F)F)n2)CC1 [US20240368194, Example 11]	18.5 nM
CN(CCC1CCN(C(=O)c2ccc(OC(F)(F)F)c(N3CCC(=O)NC3=O)c2)CC1)C[C@H]1CC[C@H](n2cc(NC(=O)c3cnn4ccc(N5C[C@H]6C[C@@H]5CO6)nc34)c(C(F)F)n2)CC1 [US20240368194, Example 33]	23.9 nM
CN(CC[C@H]1CC[C@H](n2cc(NC(=O)c3cnn4ccc(N5C[C@H]6C[C@@H]5CO6)nc34)c(C(F)F)n2)CC1)CC1CCN(C(=O)c2ccc(Cl)c(N3CCC(=O)NC3=O)c2)CC1 [US20240368194, Example 46]	278 nM
CN(CCC1CCN(C(=O)c2ccc(Cl)c(N3CCC(=O)NC3=O)c2)CC1)C[C@]1(O)CC[C@@H](n2cc(NC(=O)c3cnn4ccc(N5C[C@H]6C[C@@H]5CO6)nc34)c(C(F)F)n2)CC1 [US20240368194, Example 65]	52.1 nM

The remaining lines, values ahead:

IC50	SMILES
360 nM	O=C1CCN(c2cc(C(=O)N3CCC4(CCN(C[C@H]5CC[C@H](n6cc(NC(=O)c7cnn8ccc(N9C[C@H]%10C[C@@H]9CO%10)nc78)c(Cl)n6)CC5)CC4)CC3)ccc2Cl)C(=O)N1 [US20240368194, Example 5]
313 nM	Cc1nn([C@H]2CC[C@H](CN3CCC4(CC3)CCN(C(=O)c3ccc(Cl)c(N5CCC(=O)NC5=O)c3)CC4)CC2)cc1NC(=O)c1cnn2ccc(N3C[C@H]4C[C@@H]3CO4)nc12 [US20240368194, Example 7]
14.3 nM	O=C1CCC(c2ccc(C(=O)N3CCC4(CCC(CN5CCC(n6cc(NC(=O)c7cnn8ccc(N9CCOCC9)nc78)c(C(F)F)n6)CC5)CC4)CC3)cc2)C(=O)N1 (stereo not given) [US20240368194, Example 26]
20 nM	O=C1CCN(c2cc(C#CCOC3CCN(C[C@H]4CC[C@H](n5cc(NC(=O)c6cnn7ccc(N8CCOCC8)nc67)c(C(F)F)n5)CC4)CC3)ccc2Cl)C(=O)N1 [US20240368194, Example 38]
25.5 nM	CN1CCN(c2ccn3ncc(C(=O)Nc4cn([C@H]5CC[C@H](CN(C)CCC6CCN(C(=O)c7ccc(F)c(N8CCC(=O)NC8=O)c7)CC6)CC5)nc4C(F)F)c3n2)CC1 [US20240368194, Example 41]
8.71 nM	COc1ccc(C(=O)N2CCC3(CCC(N(C)C[C@H]4CC[C@H](n5cc(NC(=O)c6cnn7ccc(N8CCOCC8)nc67)c(C(F)F)n5)CC4)CC3)CC2)cc1N1CCC(=O)NC1=O [US20240368194, Example 59]
